From publication PMC9727064, “Performance assessment and economic analysis of a human Liver-Chip for predictive toxicology” (Communications Medicine, 2022)
Entries after “also recorded” stand apart in the source; their conditions may differ.

Legend:
[1] = tested on: human Liver-Chip (hepatocyte layer); test: Liver-Chip immunofluorescence imaging (caspase 3/7, TMRM, AdipoRed/LipidTOX); type: cell-based; conditions: for Immunofluorescent findings, donor one (Supplementary Figure 3) / Immunofluorescent findings, donor three (Supplementary Figure 3) / Immunofluorescent findings, donor two (Supplementary Figure 3): day 7 post-drug administration, hepatocyte layer, top channel; for Immunofluorescence staining result in words: caspase 3/7 (apoptosis) or TMRM (mitotoxicity), 7 days
Method: Chips were detached from pods and washed once with PBS. […] Afterwards, chips were washed with PBS and stored at 4 °C until staining. Following fixation, chips corresponding to low, medium, and high concentrations from each group were cut in half with a razor blade perpendicular to the co-culture channels. One half was used in the following staining protocol, while the other half was stored for future staining. All stains and washes utilized the bubble method, in which a small amount of air is flowed through the channel prior to bulk wash media to prevent a liquid-liquid dilution of the staining solution. […] Following 15 minutes of incubation at room temperature, each channel was washed with 200 µL of PBS (alternating channels, 2× for top and 3× for bottom). As an alternative lipid accumulation marker, 100 µL of HCS LipidTOX Deep Red (ThermoFisher, H34477) was diluted 1:1000 v/v in PBS with NucBlue counterstain and added to the top channel. After a 30 min incubation at room temperature, the chips were again allowed to reach room temperature before the channels were alternatively washed with 200 µL of PBS, the bottom channel undergoing three washes and the top channel undergoing two. Chips were then imaged using the Opera Phenix. Following lipid and DAPI staining and imaging, chips were stained with a […] (MRP2) antibody to visualize the bile canalicular structures characteristic of healthy Liver-Chips. […] Then, each channel was washed with 200 µL of PBS (alternating channels, 2× for top and 3× for bottom). […] Next, primary antibody Mouse anti-MRP2 (Abcam, ab3373) was prepared 1:100 in the original blocking buffer, diluted 1:4 in PBS. 100 µL of solution was added to each channel, and chips were stored overnight at 4 °C. The following day, each channel was washed with 200 µL of PBS (alternating channels, 2× for top and 3× for bottom). […] 100 µL of solution was added to each channel and chips incubated at room temperature, protected from light, for two hours. Then, each channel was washed with 200 µL of PBS (alternating channels, 2× for top and 3× for bottom). Chips were imaged immediately or stored at 4 °C until ready for imaging on the Opera Phenix. Chip replicates designated for live cell imaging were washed with PBS utilizing the bubble method. Chips were then cut in half perpendicular to the co-culture channels. […] The bottom chips halves were stained with NucBlue (Thermo) to visualize nuclei and Tetramethylrhodamine, methyl ester (TMRM) (ThermoFisher, I34361) to visualize active mitochondria. This staining panel was prepared in PBS with 5% FBS, with NucBlue at 2 drops per mL and TMRM at a 1:1000 ratio in original blocking buffer, diluted 1:4 in PBS. Chips were incubated in the dark at 37 °C for 30 min, and then each channel was washed with 200 µL of PBS (alternating channels, 2× for top and 3× for bottom). The chips were kept at 37 °C, protected from light, until ready for imaging with the Opera Phenix. Fluorescent confocal image acquisition was performed using the Opera Phenix High-Content Screening System and Harmony 4.9 Imaging and Analysis Software (PerkinElmer). Before acquisition, the Phenix internal environment was set to 37 °C and 5% CO2. […] Whole chips were placed directly into each slot, while top and bottom half chips were matched and combined in one chip slot. Chips were aligned flush with the adapter and one another. Any bubbles identified from visual inspection were washed out with PBS. Once ready, the stained chips were covered with transparent plate film to seal channel ports and loaded into the Phenix. […] Z-stacks were generated with 3.6 µm between slices for 28–32 planes so that the epithelium was located around the center of the stack. […] Raw images from fixed and live imaging were exported in TIFF format from the Harmony software. Using scripts written for FIJI (ImageJ), TIFFs across three color channels and multiple z-stacks were compiled into composite images for each field of view in each chip. […]

[2] = tested on: 3D spheroid cultures of primary human hepatocytes; conditions: cited from earlier work; for Spheroid MOS: 3D hepatic spheroids, previously published data; for Spheroid false negative: Yes/No, also No for drugs not tested in spheroid
[3] = tested on: clinical drug-induced liver injury; conditions: clinical DILI severity category 1 to 5; cited from earlier work
[4] = tested on: human Liver-Chip; test: Liver-Chip DILI prediction: minimum toxic concentration and margin of safety (MOS)-like figure; conditions: for Chip MOS both donors / Chip MOS donor 1 / Chip MOS donor 2: free IC50 concentration in the assay divided by total concentration of drug in human plasma at Cmax; for Liver-Chip toxicity determination, MOS-like figure against threshold value of 50: not corrected for protein binding, donors one and two;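 on Chip MOS both donors: Toxic concentration is the lowest across albumin IC50 and ALT and morphology endpoints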;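 on Chip MOS donor 1: Toxic concentration is the lowest across albumin IC50 and ALT and morphology endpoints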;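 on Chip MOS donor 2: Toxic concentration is the lowest across albumin IC50 and ALT and morphology endpoints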
Text: Because the fundamental principles of drug action dictate that free (unbound) drug concentrations drive drug effects, we explored an alternative methodology for calculating the MOS-like values by accounting for protein binding using a previously reported approach. Accordingly, we reanalyzed the findings for the 27 drugs in our study by accounting for protein binding.

Row | Compound | Immunofluorescent findings, donor one (Supplementary Figure 3) [1] | Immunofluorescent findings, donor three (Supplementary Figure 3) [1] | IF imaging Donor 1 ([1]; matched pair analysis) | IF imaging Donor 2 ([1]; matched pair analysis) | IF imaging Donor 3 ([1]; matched pair analysis) | Spheroid MOS [2] | Spheroid false negative [2] | Garside DILI rank [3] | Chip MOS both donors [4] | Chip MOS donor 1 [4] | Chip MOS donor 2 [4] | Immunofluorescence staining result in words [1] | IF imaging Donor 1 ([1]; expanded drug list) | Immunofluorescent findings, donor two (Supplementary Figure 3) [1] | IF imaging Donor 2 ([1]; expanded drug list) | Liver-Chip toxicity determination, MOS-like figure against threshold value of 50 [4] | Hepatotoxicity in the Liver-Chip, in words ([4]; albumin, ALT and morphology endpoints together) | Toxicity detection in 3D hepatic spheroids ([2]; threshold 50) | Liver-Chip toxicity determination, protein-binding-corrected MOS-like figure, threshold 375 ([4]; 18 drugs tested in both donors)
1 | COC(c1ccccc1)(c1ccccc1)[C@H](Oc1nc(C)cc(C)n1)C(=O)O [Ambrisentan] | No findings | No findings | No findings | No findings | No findings | >127 | No | 5 | >10 | >3 | >10 |  |  |  |  |  |  |  | 
2 | C=C[C@@H]1C[C@]1(NC(=O)[C@@H]1C[C@@H](Oc2ncc(OC)c3ccc(Cl)cc23)CN1C(=O)[C@@H](NC(=O)OC(C)(C)C)C(C)(C)C)C(=O)NS(=O)(=O)C1CC1 [Asunaprevir] |  |  |  |  |  |  | No | 2 |  | 4 |  | apoptosis-mediated cell death | Apoptosis |  |  |  |  |  | 
3 | CC(C(=O)O)c1ccc2oc(-c3ccc(Cl)cc3)nc2c1 (centres unmarked) [Benoxaprofen] |  |  |  |  |  | >0.7 | Yes | 1 | 0.001 | 0.001 | 0.3 |  | Apoptosis | Apoptosis | Apoptosis | hepatotoxic |  |  | 
4 | CCN(CC)C(=O)/C(C#N)=C/c1cc(O)c(O)c([N+](=O)[O-])c1 [Entacapone] | No findings |  | No findings |  |  | 46.5 | No | 4 |  | >6 |  |  |  |  |  |  |  |  | 
5 | O=c1[nH]c(=O)n([C@@H]2O[C@H](CO)[C@@H](O)[C@@H]2F)cc1I [FIRU] | No findings |  | No findings | Steatosis |  |  | No | 5 | >108 | >108 | >108 |  |  |  |  |  |  |  | 
6 | O=c1[nH]c(=O)n([C@@H]2O[C@H](CO)[C@@H](O)[C@@H]2F)cc1I [Fialuridine] | No findings |  | No findings | Steatosis |  | 12.3 | No | 1 | 0.1 | 0.1 | 2.8 |  |  | Steatosis |  |  |  |  | 
7 | CC(CCc1ccccc1)NCC(O)c1ccc(O)c(C(N)=O)c1 (centres unmarked) [Labetalol] | Apoptosis |  |  |  |  |  | Yes | 1 | 22 | 26 | 22 |  | Apoptosis | Apoptosis | Apoptosis | hepatotoxic |  |  | 
8 | O=C(NC1CCN(CCCCC2(C(=O)NCC(F)(F)F)c3ccccc3-c3ccccc32)CC1)c1ccccc1-c1ccc(C(F)(F)F)cc1 [Lomitapide] | No findings |  |  |  |  |  | No | 3 |  | 0 |  |  | No findings |  |  |  | highly toxic |  | 
9 | CCc1nn(CCCN2CCN(c3cccc(Cl)c3)CC2)c(=O)n1CCOc1ccccc1 [Nefazodone] | No findings |  | No findings |  |  | 6.8 | No | 1 |  | 1.4 |  |  |  |  |  |  |  |  | 
10 | Cc1cc2c(s1)Nc1ccccc1N=C2N1CCN(C)CC1 [Olanzapine] | Apoptosis | No findings | Apoptosis | No findings | No findings |  | No | 5 | >20 | >20 | >2 |  |  |  |  |  |  |  | 
11 | CCc1ccc(CCOc2ccc(CC3SC(=O)NC3=O)cc2)nc1 (centres unmarked) [Pioglitazone] | Apoptosis |  | Apoptosis | No findings |  | > 5.3 | Yes | 3 | 2.8 | 2.8 | > 2.8 |  |  | No findings |  |  |  |  | 
12 | Cc1cc2c(cc1CC(=O)c1sccc1S(=O)(=O)Nc1onc(C)c1Cl)OCO2 [Sitaxsentan] | Mitotoxicity | Mitotoxicity | Mitotoxicity | Mitotoxicity | Mitotoxicity | 8.7 | No | 1 | 0.04 | 0.04 | 1.6 | concentration-dependent decrease in TMRM staining |  | Mitotoxicity |  |  |  |  | 
13 | Cc1cn([C@H]2C=C[C@@H](CO)O2)c(=O)[nH]c1=O [Stavudine] | No findings |  |  |  |  | >144 | Yes | 1 | 107 | 247 | 107 |  | No findings | Mitotoxicity | Mitotoxicity | not detected; also recorded: false negative |  | not detected as toxic drugs in spheroids | detection
14 | CCOC(=O)CN[C@@H](C(=O)N1CC[C@H]1C(=O)NCc1ccc(/C(N)=N\O)cc1)C1CCCCC1 [Ximelagatran] | No findings |  |  |  |  | 335 | Yes |  | 30 | 30 | 300 |  | No findings | No findings | No findings | only toxic in one of the donors tested |  |  | 
